Experimental data published in US7635708B2, “Methods and pharmaceutical compositions for inhibiting tumor cell growth” (Dana-Farber Cancer Institute, priority 1996, dated 2009).
Read-outs that look alike come from different tables or passages of the source.

How the values were obtained:
[1] = test system: primary liposarcoma cells; experiment: Adipocyte differentiation of primary cells isolated from three human liposarcomas (LS857, LS175, LS707); type: cell-based; details: 7 days (pioglitazone 10 μM)
Method: (§1) BrdU labeling was performed using the labeling kit (Boehringer Mannheim) according to the manufacturers instructions.
To address this possibility, primary cells isolated from three human liposarcomas were cultured in vitro (see Materials and Methods). Primary cell strains LS857 and LS175 were derived from well differentiated tumors and LS707 was derived from a myxoid tumor (see table 2). […] A primary leiomyosarcoma cell line LM203 was cultured as a control. To confirm that these cultures consisted of malignant tumor-derived cells, cytogenetic analysis was performed.

NIH-PPARγ cells [2] = experiment: Adipocytic differentiation (percent lipid-containing cells) of NIH-PPARγ cells; type: cell-based
Method: as §1
(§2) Extent of adipocytic differentiation is indicated as the percentage of lipid-containing cells.

[3] = test system: LM203 lieomyosarcoma cells; experiment: Lipid accumulation in primary leiomyosarcoma cell line LM203 (control); type: cell-based, human; details: which do not express PPARγ
LS175 cells = experiment: Adipocyte differentiation of primary liposarcoma cells LS175; type: cell-based, human; details: 10 μM, 7 days
aP2 and adipsin = experiment: Northern analysis of adipocyte-specific markers in LS857 liposarcoma cells; type: cell-based, human; details: Northern blotting
LS857 cells = experiment: Adipocyte differentiation of primary liposarcoma cells LS857; type: cell-based, human
Method: (§3) Primary liposarcoma cells were isolated from selected freshly harvested tumors as described previously (Fletcher, J. A. et al. (1991) NEJM 324:436-443) and references therein. Primary cells were plated at a density of at least 2×10^5 cells/ml and cultured in 60 mm dishes in RPMI containing 15% Cosmic Calf Serum (Hyclone) and 5 μ/ml insulin. […] The NIH-PPARγ and NIH-vector cells were derived by retroviral infection as described (Tontonoz, P. et al., (1994) supra). Differentiated cells were stained for neutral lipid with Oil Red-O (Green, H. and Kehinde, O. (1974) Cell 1:113-116). BrdU labeling was performed using the labeling kit (Boehringer Mannheim) according to the manufacturers instructions.
Liposarcomas have presumably acquired one or more genetic defects that interferes with the course of normal adipocyte development (Crozat, A. et al., (1993) Nature 363:640-644; Fletcher, J. A. et al., (1991) supra). […]
When cultured in the presence of fetal bovine serum and insulin, conditions permissive for adipocyte differentiation, all three cell lines maintain a fibroblastic morphology. […] This experiment was performed at least twice with each cell strain with quantitatively and qualitatively similar results. […]

NIH-vector cells [4] = experiment: Adipocytic differentiation (percent lipid-containing cells) of NIH-vector cells; type: cell-based; details: for percent lipid-containing cells: NIH-vector, confluent cells, 7 days, 1 μM pioglitazone, 50 nM LG268
Method: as §3
We hypothesized that simultaneous exposure of competent cells to both PPARγ and R×R-specific ligands might provide a stronger adipogenic signal than a PPARγ ligand alone. The ability of the R×R-specific ligand LG268 to promote adipocyte differentiation was investigated using NIH-3T3 fibroblasts that express PPARγ from a retroviral vector (Tontonoz, P. et al. (1994) supra). We have previously shown that wild-type NIH-3T3 cells express R×Rα but not PPARγ. […] Similar results were obtained with the preadipocyte cell lines 3T3-L1 and 3T3-F442A which express both PPARγ and R×Rα (data not shown).
as §2

3T3-F442A preadipocytes = experiment: BrdU incorporation, 3T3-F442A preadipocytes; type: cell-based
Excerpt: (§4) […]. […] […].

[5] = test system: human liposarcoma cells (LS 857); experiment: BrdU labeling and lipid staining of LS857 liposarcoma cells after induced differentiation (growth arrest); type: cell-based
NIH-vector cells [6] = experiment: BrdU incorporation, NIH-vector cells; type: cell-based
Excerpt: as §4

HIB1B cells [7] = experiment: BrdU incorporation, HIB1B cells; type: cell-based, mice
Excerpt: as §4

NIH-PPARγ cells [8] = test system: NIH-PPARγ cells
Method: BrdU incorporation experiment was performed as described in the protocol provided by the supplier (Boehringer Mannheim Biochemical). Briefly, cells grown on coverslips were labeled with 10 μM BrdU for 1 hr. Samples were washed and fixed with ethanol-glycine buffer and incubated with anti-BrdU monoclonal antibody. After incubation with anti-mouse-Ig-alkaline phosphatase followed by the substrate reaction, bound anti-BrdU antibody was visualized by light microscopy.
Cells undergoing DNA synthesis during exposure to BrdU were determined by immunohistochemical staining and considered as BrdU positive. The data represents the average of two independent experiments in which approximately 400 cells were counted per sample.

NIH-PPARγ cells [9] = details: at the concentrations used (pioglitazone 5 μM, BRL49653 1 μM)
Method: 48 hr after transfection viral supernatants were collected and NIH3T3 cells were infected at 50% confluence with equal titers of recombinant virus. The supernatants were applied to the cells in DMEM containing 10% cosmic calf serum (Hyclone) and 4 μg/ml of polybrene. 24 hr after infection, cells were split and plated in DMEM containing 10% calf serum and 2 μg/ml puromycin to select infected cells. NIH-3T3 cell lines infected with empty vector or with viral expression vectors containing wild type or mutant forms of PPARγ cDNA as well as HIB1B and 3T3-F442A cell lines were cultured in DMEM containing 10% cosmic calf serum.
The same number of NIH-PPARγ, NIH-vector or HIB1B cells were cultured either in the presence (+) or absence (−) of PPARγ ligands. Cell numbers were determined at the indicated time points. The effect of ligands on cell growth is represented as percentage decrease in cell numbers in the treated plates relative to untreated control plates.

HIB1B cells [10] = experiment: Adipose cell tumors from HIB1B cells implanted in nude mice; type: in vivo; details: for Tumor volume (mean (SD)): 0.2% mixture with powder food
Method: HIB1B cells (2×10^6 cells/animal) were injected subcutaneously to the upper back of twenty four male nude mice (7 weeks NCR […]). Thirteen days after injection, mice were treated with troglitazone (0.2% mixture with powder food). The development of tumor volume (measured in mm^3) was determined at days 14, 19 and 26 after troglitazone treatment compared to untreated controls. Each point represents the mean±[…] (SD) from 12 mice (except the last point, where n=11) treated or untreated with troglitazone for the indicated time intervals. To evaluate changes in tumor size, mean (SD) from 11-12 cases for each group of animal were examined to ensure an 85% chance of detecting a statistically significant difference (assuming a 2-sided sample t-test). […] Points A-C and D-F represent untreated and troglitazone-treated animals, respectively. Each point represents the mean±standard deviation from 12 mice (except the last point, where n=11). Statistically significant decreases in tumor volume were detected in implanted mice treated with troglitazone compared to untreated controls. […] The tumor volume was determined after 14, 19 and 26 days of treatment. Volumes are indicated with and without outlier points in each group of animals. A comparison of the tumor volume by two-sided 2-sample t-test after 26 days of treatment indicates p=0.0019 (without outlier); p=0.037 (with outlier). To evaluate the tumor increase over time, repeated measures analysis of variance were determined, p=0.0014 without outlier; p=0.044 with outlier.

[11] = LS857, pioglitazone withdrawn 48 hours, then BrdU 48 hours

CCc1ccc(CCOc2ccc(CC3SC(=O)NC3=O)cc2)nc1 (stereo not shown) [pioglitazone, 5-[4-[2-(5-ethyl-2-pyridyl)-ethoxy]benzyl]-2,4-thiazolidinedione]
induction of differentiation (lipid accumulation, adipocyte morphology) [1]: readily accumulated lipid and adopted a morphology characteristic of mature cultured adipocytes | percent lipid-containing cells (NIH-PPARγ cells [2]): 60-70% | lipid accumulation [3]: No lipid accumulation | degree of morphologically recognizable differentiation (LS175 cells): 75% | induction of the mRNAs encoding aP2 and adipsin (aP2 and adipsin): induction of two markers of terminal adipocyte differentiation | degree of morphologically recognizable differentiation (LS857 cells; LS 857 cells, 10 μM, 7 days): 40% | percent lipid-containing cells (NIH-vector cells [4]): 0% | decrease in the BrdU incorporation rate (3T3-F442A preadipocytes; 3T3-F442A preadipocytes, after 5 days of treatment): 80% | BrdU positive % (3T3-F442A preadipocytes; 3T3-F442A, 5 μM pioglitazone for 5 days, BrdU pulse 1 hour): 14% | cells containing lipid that stain positive for BrdU ([5]; LS857, of those cells containing lipid): 2% | cells containing visible cytoplasmic lipid [5, 11]: 35% | cells stained positive for BrdU incorporation [5, 11]: 28% | change of BrdU incorporation rate (NIH-vector cells [6]; NIH-vector cells, 5 days of treatment): did not change | BrdU positive % (NIH-vector cells [6]; NIH-vector, 5 μM pioglitazone for 5 days, BrdU pulse 1 hour): 43% | BrdU positive % (HIB1B cells [7]; 5 μM pioglitazone for 5 days, BrdU pulse 1 hour): 11% | decrease of BrdU incorporation into newly synthesized DNA (HIB1B cells [7]; after 5 days of treatment): 85% | BrdU positive % (NIH-PPARγ cells [8]): 9%

Cc1cc2c(cc1C1(c3ccc(C(=O)O)cn3)CC1)C(C)(C)CCC2(C)C [LG268]
percent lipid-containing cells (NIH-PPARγ cells [2]; NIH-PPARγ, confluent cells, 7 days, 1 μM pioglitazone, 50 nM LG268): 50-65% | stimulation of adipocyte differentiation (NIH-PPARγ cells [2]; confluent NIH-PPARγ cells, 7 days, 50 nM LG268, 1 μM pioglitazone): significant stimulation of adipocyte differentiation | adipocyte differentiation of LS857 cells (LS857 cells; 50 nM LG268, 10 μM pioglitazone, alone or simultaneously): significant degree of adipocyte differentiation | adipogenic effect on NIH-vector cells (NIH-vector cells [4]; NIH-vector cells): no effect | percent lipid-containing cells (NIH-vector cells [4]): 0%

CN(CCOc1ccc(CC2SC(=O)NC2=O)cc1)c1ccccn1 (stereo not shown) [BRL49653, rosiglitiazone]
cytotoxic effects (NIH-PPARγ cells [9]): No obvious cytotoxic effects

Cc1c(C)c2c(c(C)c1O)CCC(C)(COc1ccc(CC3SC(=O)NC3=O)cc1)O2 (stereo not shown) [troglitazone, 5-[[4-[(3,4-dihydro-6-hydroxy-2,5,7,8-tetramethyl-2H-1-benzopyran-2-yl)methoxy]phenyl]methyl]-2,4-thiazolidinedione]
size of adipose tumors in nude mice compared to untreated controls (HIB1B cells [10]; 14, 19 and 26 days of treatment): effective in reducing the size of adipose tumors | Tumor volume (mean (SD)) (HIB1B cells [10]; 14 days of treatment, w outlier): 403(182) mm^3 | Tumor volume (mean (SD)) (HIB1B cells [10]; 14 days of treatment, w/o outlier): 361(110) mm^3 | Tumor volume (mean (SD)) (HIB1B cells [10]; 19 days of treatment, w outlier): 990(665) mm^3 | Tumor volume (mean (SD)) (HIB1B cells [10]; 19 days of treatment, w/o outlier): 830(389) mm^3 | Tumor volume (mean (SD)) (HIB1B cells [10]; 26 days of treatment, w outlier): 2601(2270) mm^3 | Tumor volume (mean (SD)) (HIB1B cells [10]; 26 days of treatment, w/o outlier): 2032(1179) mm^3 | induction of differentiation (lipid accumulation, adipocyte morphology) [1]: Induction of differentiation was also observed
